From patent US20260297085A1, “1 H-PYRROLO[2,3-B]PYRIDIN-4-YL]-2-OXOPYRROLIDINE-3-CARBONITRILE DERIVATIVES AS TYROSINE KINASE 2 (TYK2) INHIBITORS FOR THE TREATMENT OF INFLAMMATORY DISEASES” (BIOGEN MA INC., priority 2023, published 2026)

Columns and labels:
[1] = molecular target: T1, human JAK3 kinase domain (JH1) (Homo sapiens, UniProt P52333); assay: JH1 biochemical assay for JAK3 (ADP-Glo kinase assay, recombinant JH1 catalytic domain, JAK3-974 peptide, 4 μM ATP)
T1 construct: recombinantly generated catalytic kinase (also known as JH1) domain of human JAK1, JAK2, JAK3 and TYK2
T1 sequence (P52333 822-1111 limits assumed): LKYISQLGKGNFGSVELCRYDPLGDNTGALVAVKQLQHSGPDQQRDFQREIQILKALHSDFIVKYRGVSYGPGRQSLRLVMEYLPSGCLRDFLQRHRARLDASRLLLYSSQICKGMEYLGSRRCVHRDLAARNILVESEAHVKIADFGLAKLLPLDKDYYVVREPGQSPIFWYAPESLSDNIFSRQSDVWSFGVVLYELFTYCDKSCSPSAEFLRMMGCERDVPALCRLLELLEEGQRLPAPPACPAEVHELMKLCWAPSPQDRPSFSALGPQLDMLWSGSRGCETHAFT
How it was run: (§1)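 ADP-Glo luminescence with 50 μM peptide and 100 min reactions: JAK1 4 nM with JAK3-342 peptide; JAK2, JAK3 and TYK2 at 0.2, 0.3 and 2 nM with JAK3-974 peptide. Compounds tested from 10 or 1 μM top, 11 points, 3-fold. IC50 from a 4-parameter logistic fit of normalized activity.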

[2] = molecular target: Tyk2 kinase activity on STAT4 in NK92 cells (Homo sapiens, UniProt P29597); assay: pSTAT4 cell assay (MSD; NK92 cells, 30 ng/mL IL2 stimulation); format: cell-based; conditions: 30 ng/mL IL2, 15 minutes
Sequence of Tyk2 kinase activity on STAT4 in NK92 cells (P29597 whole entry): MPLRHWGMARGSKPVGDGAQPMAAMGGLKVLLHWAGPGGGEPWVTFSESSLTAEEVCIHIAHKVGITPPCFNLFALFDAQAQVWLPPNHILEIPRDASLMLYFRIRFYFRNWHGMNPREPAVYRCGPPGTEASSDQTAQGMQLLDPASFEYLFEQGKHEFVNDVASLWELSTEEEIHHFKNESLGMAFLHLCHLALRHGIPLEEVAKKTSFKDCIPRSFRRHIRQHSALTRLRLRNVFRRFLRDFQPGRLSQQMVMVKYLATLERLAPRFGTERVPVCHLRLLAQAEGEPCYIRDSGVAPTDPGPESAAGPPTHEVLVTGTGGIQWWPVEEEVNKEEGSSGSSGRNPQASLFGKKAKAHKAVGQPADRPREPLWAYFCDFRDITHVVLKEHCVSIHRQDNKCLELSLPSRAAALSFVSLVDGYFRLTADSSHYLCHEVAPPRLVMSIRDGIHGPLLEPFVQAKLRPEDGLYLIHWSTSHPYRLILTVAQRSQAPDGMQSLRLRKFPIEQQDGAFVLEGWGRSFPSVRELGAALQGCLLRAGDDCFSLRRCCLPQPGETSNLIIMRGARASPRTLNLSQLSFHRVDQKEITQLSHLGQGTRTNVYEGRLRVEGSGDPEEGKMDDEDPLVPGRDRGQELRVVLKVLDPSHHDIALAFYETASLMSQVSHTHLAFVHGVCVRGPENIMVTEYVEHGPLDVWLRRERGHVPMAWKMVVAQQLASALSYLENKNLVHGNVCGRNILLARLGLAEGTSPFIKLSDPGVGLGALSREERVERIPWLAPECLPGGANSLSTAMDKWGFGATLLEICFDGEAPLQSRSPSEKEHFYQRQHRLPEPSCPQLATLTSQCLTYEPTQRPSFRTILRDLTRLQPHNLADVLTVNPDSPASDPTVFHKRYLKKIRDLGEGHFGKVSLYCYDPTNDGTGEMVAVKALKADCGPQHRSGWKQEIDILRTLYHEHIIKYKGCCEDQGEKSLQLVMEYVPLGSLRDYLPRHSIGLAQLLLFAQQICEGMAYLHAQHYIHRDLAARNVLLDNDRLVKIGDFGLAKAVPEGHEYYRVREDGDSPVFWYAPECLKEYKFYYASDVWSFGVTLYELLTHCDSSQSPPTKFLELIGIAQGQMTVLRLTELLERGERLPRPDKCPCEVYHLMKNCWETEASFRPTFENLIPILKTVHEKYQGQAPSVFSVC
Procedure: The inhibitory potency of compounds of the disclosure against the Tyk2 kinase activity on STAT4 was evaluated using an MSD-platform plate-based assay format. NK92 cells natively expressing STAT4 and Tyk2 were serum-starved to reduce background phosphorylation levels, then cells were treated compounds for 1 hr with a 10-point four-fold dilution series starting at 10 μM. Cells were then stimulated with 30 ng/mL IL2 for 15 minutes. Cells were lysed and […] levels were quantitated using an MSD plate-based assay with anti-STAT4 antibodies. The data were normalized and the percent activity versus log concentration of compound were fitted with a 4-parameter logistic model to generate to generate IC50 curves.

[3] = molecular target: T2, human JAK1 kinase domain (JH1) (Homo sapiens, UniProt P23458); assay: JH1 biochemical assay for JAK1 (ADP-Glo kinase assay, recombinant JH1 catalytic domain, JAK3-342 peptide, 35 μM ATP)
T2 construct: recombinantly generated catalytic kinase (also known as JH1) domain of human JAK1, JAK2, JAK3 and TYK2
T2 sequence (P23458 875-1153 limits assumed): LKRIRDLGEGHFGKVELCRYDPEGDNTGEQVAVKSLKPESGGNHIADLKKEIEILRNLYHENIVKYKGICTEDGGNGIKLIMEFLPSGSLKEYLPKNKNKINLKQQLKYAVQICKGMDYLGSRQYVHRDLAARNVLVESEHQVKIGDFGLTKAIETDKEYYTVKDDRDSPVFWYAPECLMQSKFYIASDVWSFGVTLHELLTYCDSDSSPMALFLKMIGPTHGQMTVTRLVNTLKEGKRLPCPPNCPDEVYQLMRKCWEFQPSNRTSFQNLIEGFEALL
How it was run: as §1

[4] = molecular target: JAK1 kinase activity on STAT3 in TF1 cells (Homo sapiens, UniProt P23458); assay: pSTAT3 cell assay (MSD; TF1 cells, 30 ng/mL IL-6 stimulation); format: cell-based; conditions: 30 ng/mL IL-6, 15 minutes
Sequence of JAK1 kinase activity on STAT3 in TF1 cells (P23458 whole entry): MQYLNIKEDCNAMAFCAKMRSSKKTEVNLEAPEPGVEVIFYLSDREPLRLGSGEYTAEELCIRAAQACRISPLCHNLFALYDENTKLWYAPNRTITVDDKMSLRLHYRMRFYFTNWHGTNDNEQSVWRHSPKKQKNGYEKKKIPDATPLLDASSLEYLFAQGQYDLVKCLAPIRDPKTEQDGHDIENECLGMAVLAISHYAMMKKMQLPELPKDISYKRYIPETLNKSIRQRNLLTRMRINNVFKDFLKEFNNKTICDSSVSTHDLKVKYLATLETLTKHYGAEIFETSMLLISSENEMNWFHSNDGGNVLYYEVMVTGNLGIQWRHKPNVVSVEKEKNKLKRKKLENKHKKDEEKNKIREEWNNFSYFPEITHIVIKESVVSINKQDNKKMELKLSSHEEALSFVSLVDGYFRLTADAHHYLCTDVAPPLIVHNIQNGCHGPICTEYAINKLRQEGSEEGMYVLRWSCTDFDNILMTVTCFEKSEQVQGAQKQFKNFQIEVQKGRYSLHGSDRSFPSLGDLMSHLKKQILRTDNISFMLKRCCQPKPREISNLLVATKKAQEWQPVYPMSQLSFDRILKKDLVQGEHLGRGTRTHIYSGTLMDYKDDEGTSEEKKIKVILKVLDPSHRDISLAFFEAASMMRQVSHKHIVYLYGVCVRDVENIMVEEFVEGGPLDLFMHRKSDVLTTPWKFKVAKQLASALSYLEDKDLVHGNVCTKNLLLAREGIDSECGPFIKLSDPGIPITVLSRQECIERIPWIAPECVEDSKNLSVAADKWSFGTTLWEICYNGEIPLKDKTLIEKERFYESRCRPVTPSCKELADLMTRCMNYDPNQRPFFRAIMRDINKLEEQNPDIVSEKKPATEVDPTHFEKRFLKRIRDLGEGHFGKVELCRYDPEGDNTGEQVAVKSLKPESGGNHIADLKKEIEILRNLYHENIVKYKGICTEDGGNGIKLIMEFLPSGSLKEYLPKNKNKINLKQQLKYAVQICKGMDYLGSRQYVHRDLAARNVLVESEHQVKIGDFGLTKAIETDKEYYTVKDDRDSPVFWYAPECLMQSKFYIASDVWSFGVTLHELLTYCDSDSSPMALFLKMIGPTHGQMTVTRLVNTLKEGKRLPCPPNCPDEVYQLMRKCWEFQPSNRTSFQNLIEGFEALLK
Procedure: The inhibitory potency of compounds of the disclosure against the JAK1 kinase activity on STAT3 was evaluated using an MSD-platform plate-based assay format. TF1 cells natively expressing STAT3 and JAK1 were serum-starved to reduce background phosphorylation levels, then cells were treated with compounds of the disclosure for 1 hour with a 10-point four-fold dilution series starting at 10 μM. Cells were then stimulated with 30 ng/mL interleukin 6 (IL-6) for 15 minutes. Cells were lysed and pSTAT3 levels were quantitated using an MSD plate-based assay with anti-STAT3 antibodies. The data were normalized and the percent activity versus log concentration of compound was fitted with a 4-parameter logistic model to generate IC50 curves.

[5] = molecular target: T3, human TYK2 kinase domain (JH1) (Homo sapiens, UniProt P29597); assay: JH1 biochemical assay for TYK2 (ADP-Glo kinase assay, recombinant JH1 catalytic domain, JAK3-974 peptide, 10 μM ATP)
T3 construct: recombinantly generated catalytic kinase (also known as JH1) domain of human JAK1, JAK2, JAK3 and TYK2
T3 sequence (P29597 897-1176 limits assumed): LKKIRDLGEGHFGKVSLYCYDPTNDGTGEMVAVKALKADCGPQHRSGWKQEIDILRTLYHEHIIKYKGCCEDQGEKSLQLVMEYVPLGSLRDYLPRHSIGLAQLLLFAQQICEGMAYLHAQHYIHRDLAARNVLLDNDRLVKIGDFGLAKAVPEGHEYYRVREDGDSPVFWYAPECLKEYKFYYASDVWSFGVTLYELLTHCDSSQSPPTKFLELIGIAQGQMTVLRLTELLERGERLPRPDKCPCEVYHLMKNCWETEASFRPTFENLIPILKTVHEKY
How it was run: as §1

[6] = molecular target: JAK2 kinase activity on STAT5 in TF1 cells (Homo sapiens, UniProt O60674); assay: pSTAT5 cell assay (MSD; TF1 cells, 30 ng/mL IL-3 stimulation); format: cell-based; conditions: 30 ng/mL IL-3, 15 minutes
Sequence of JAK2 kinase activity on STAT5 in TF1 cells (O60674 whole entry): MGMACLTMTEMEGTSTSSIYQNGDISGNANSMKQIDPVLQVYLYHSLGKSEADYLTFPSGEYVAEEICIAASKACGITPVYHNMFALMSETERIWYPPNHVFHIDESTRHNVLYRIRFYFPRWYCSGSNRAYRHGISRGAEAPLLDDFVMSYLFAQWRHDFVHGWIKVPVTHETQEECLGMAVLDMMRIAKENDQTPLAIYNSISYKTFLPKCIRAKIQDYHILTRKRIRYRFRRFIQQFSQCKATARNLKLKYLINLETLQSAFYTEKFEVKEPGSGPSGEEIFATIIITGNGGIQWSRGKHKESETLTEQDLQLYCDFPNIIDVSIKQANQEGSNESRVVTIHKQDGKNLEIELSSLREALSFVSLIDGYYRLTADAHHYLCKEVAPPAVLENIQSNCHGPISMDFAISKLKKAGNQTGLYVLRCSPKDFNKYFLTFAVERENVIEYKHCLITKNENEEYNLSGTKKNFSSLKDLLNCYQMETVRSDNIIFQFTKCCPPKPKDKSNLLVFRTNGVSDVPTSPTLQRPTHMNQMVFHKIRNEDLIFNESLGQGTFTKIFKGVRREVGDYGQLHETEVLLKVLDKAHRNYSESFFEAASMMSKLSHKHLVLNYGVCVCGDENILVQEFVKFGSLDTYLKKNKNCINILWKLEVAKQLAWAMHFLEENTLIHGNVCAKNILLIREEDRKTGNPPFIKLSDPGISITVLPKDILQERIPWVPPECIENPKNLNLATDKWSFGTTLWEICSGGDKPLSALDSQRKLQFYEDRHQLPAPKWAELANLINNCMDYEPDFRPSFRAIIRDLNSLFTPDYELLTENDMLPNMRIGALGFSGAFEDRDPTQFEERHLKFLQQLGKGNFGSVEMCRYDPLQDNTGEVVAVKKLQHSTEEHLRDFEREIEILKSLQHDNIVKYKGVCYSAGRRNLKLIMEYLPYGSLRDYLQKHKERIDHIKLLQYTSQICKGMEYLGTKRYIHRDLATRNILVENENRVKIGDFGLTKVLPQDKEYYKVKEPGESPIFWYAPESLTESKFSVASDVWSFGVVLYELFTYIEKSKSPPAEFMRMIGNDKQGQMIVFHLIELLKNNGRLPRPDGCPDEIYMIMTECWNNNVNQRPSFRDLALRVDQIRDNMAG
Procedure: The inhibitory potency of compounds of the disclosure against the JAK2 kinase activity on STAT5 was evaluated using an MSD-platform plate-based assay format. TF1 cells natively expressing STAT5 and JAK2 were serum-starved to reduce background phosphorylation levels, then cells were treated with compounds of disclosure for 1 hour with a 10-point four-fold dilution series starting at 10 μM. Cells were then stimulated with 30 ng/mL IL-3 for 15 minutes. Cells were then lysed and pSTAT5 levels were quantitated using an MSD plate-based assay with anti-STAT5 antibodies. The data were normalized and the percent activity versus log concentration of compound was fitted with a 4-parameter logistic model to generate a curve and an IC50 value.

[7] = molecular target: T4, human JAK2 kinase domain (JH1) (Homo sapiens, UniProt O60674); assay: JH1 biochemical assay for JAK2 (ADP-Glo kinase assay, recombinant JH1 catalytic domain, JAK3-974 peptide, 15 μM ATP)
T4 construct: recombinantly generated catalytic kinase (also known as JH1) domain of human JAK1, JAK2, JAK3 and TYK2
T4 sequence (O60674 849-1124 limits assumed): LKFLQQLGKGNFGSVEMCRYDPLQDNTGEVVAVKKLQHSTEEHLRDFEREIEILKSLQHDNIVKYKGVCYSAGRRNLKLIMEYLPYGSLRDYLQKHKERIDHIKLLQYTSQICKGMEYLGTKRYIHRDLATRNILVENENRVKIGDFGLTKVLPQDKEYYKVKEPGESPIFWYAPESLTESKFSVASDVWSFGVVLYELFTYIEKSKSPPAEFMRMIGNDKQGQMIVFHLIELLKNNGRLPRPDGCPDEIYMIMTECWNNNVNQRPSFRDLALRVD
How it was run: as §1

| IC50 ([1]; JH1 kinase domain, ADP-Glo) [nM] | IC50 [2] [nM] | IC50 ([3]; JH1 kinase domain, ADP-Glo) [nM] | IC50 [4] [nM] | IC50 ([5]; JH1 kinase domain, ADP-Glo) [nM] | IC50 [6] [nM] | IC50 ([7]; JH1 kinase domain, ADP-Glo) [nM] | IC50 ([1]; JAK3 JH1, ADP-Glo) [nM] | IC50 ([3]; JAK1 JH1, ADP-Glo) [nM] | IC50 ([5]; TYK2 JH1, ADP-Glo) [nM] | IC50 ([7]; JAK2 JH1, ADP-Glo) [nM] | Compound |
| --- | --- | --- | --- | --- | --- | --- | --- | --- | --- | --- | --- |
| 1000 to 5000 | > 100 | 100 to 1000 | > 10000 | 20 to 50 | > 10000 | 1000 to 5000 |  |  |  |  | Cn1cc(-c2cc3c(N4C[C@@H](C(F)F)[C@@](C#N)(C5CC5)C4=O)ccnn3c2)cn1 (racemic) [Example 153, rac-(3R,4S)-3-cyclopropyl-4-(difluoromethyl)-1-(6-(1-methyl-1H-pyrazol-4-yl)pyrrolo[1,2-b]pyridazin-4-yl)-2-oxopyrrolidine-3-carbonitrile] |
| 100 to 1000 | 5 to 20 | < 100 | 1000 to 5000 | < 5 | 1000 to 5000 | 100 to 1000 |  |  |  |  | C[C@@H]1CN(c2ccnn3cc(-c4cnn(C5CC5(F)F)c4)cc23)C(=O)[C@]1(C#N)C1CC1 (mixture of isomers) [Example 154, (3R,4S)-3-cyclopropyl-1-(6-(1-(2,2-difluorocyclopropyl)-1H-pyrazol-4-yl)pyrrolo[1,2-b]pyridazin-4-yl)-4-methyl-2-oxopyrrolidine-3-carbonitrile] |
|  | 20 to 50 |  | 100 to 1000 |  | 1000 to 5000 |  | < 100 | < 100 | < 5 | < 100 | C[C@@H]1CN(c2nc(-c3cnn([C@H]4CO[C@@H]4C)c3)cn3ncc(F)c23)C(=O)[C@]1(C#N)C1CC1 (relative stereo) [Example 306, (3R,4S)-3-cyclopropyl-1-(3-fluoro-6-(1-((2R,3 S)-2-methyloxetan-3-yl)-1H-pyrazol-4-yl)pyrazolo[1,5-a]pyrazin-4-yl)-4-methyl-2-oxopyrrolidine-3-carbonitrile and (3R,4S)-3-cyclopropyl-1-(3-fluoro-6-(1-((2S,3R)-2-methyloxetan-3-yl)-1H-pyrazol-4-yl)pyrazolo[1,5-a]pyrazin-4-yl)-4-methyl-2-oxopyrrolidine-3-carbonitrile] |
| 100 to 1000 | > 100 | 1000 to 5000 | > 10000 | 50 to 100 | > 10000 | 100 to 1000 |  |  |  |  | COC[C@@]1(C#N)CCN(c2ccnn3cc(-c4cnn(C)c4)cc23)C1=O (single isomer, unassigned) [Example 40] |
| 100 to 1000 | 50 to 100 | < 100 | 1000 to 5000 | < 5 | 1000 to 5000 | 100 to 1000 |  |  |  |  | C[C@@H]1CN(c2ccnn3cc(-c4cnn([C@@H]5CC5(F)F)c4)cc23)C(=O)[C@]1(C#N)C1CC1 (single isomer, unassigned) [Example 155] |
| < 100 | 50 to 100 | 100 to 1000 | 1000 to 5000 | < 5 | 1000 to 5000 | 100 to 1000 |  |  |  |  | C[C@@H]1CN(c2ccnn3cc(-c4cnn([C@H]5CC5(F)F)c4)cc23)C(=O)[C@]1(C#N)C1CC1 (single isomer, unassigned) [Example 156] |
|  | 50 to 100 |  | 1000 to 5000 |  | 100 to 1000 |  | < 100 | < 100 | < 5 | < 100 | C[C@@H]1CN(c2ccnn3cc(-c4cnn([C@H]5COCC(F)(F)C5)c4)cc23)C(=O)[C@]1(C#N)C1CC1 (single isomer, unassigned) [Example 327] |
| < 100 | 5 to 20 | < 100 | < 100 | < 5 | 100 to 1000 | < 100 |  |  |  |  | C[C@@H]1CN(c2ccnc3[nH]c(-c4cnn(C)c4)cc23)C(=O)[C@]1(C#N)C1CC1 [Example 1, (3R,4S)-3-cyclopropyl-4-methyl-1-(2-(1-methyl-1H-pyrazol-4-yl)-1H-pyrrolo[2,3-b]pyridin-4-yl)-2-oxopyrrolidine-3-carbonitrile] |
| < 100 | 20 to 50 | < 100 | 100 to 1000 | < 5 | 1000 to 5000 | < 100 |  |  |  |  | COc1cc(-c2cc3c(N4CC[C@@](C#N)(C5CC5)C4=O)ccnc3[nH]2)ccn1 [Example 3, (S)-3-cyclopropyl-1-(2-(2-methoxypyridin-4-yl)-1H-pyrrolo[2,3-b]pyridin-4-yl)-2-oxopyrrolidine-3-carbonitrile] |
|  | > 100 |  |  |  |  |  | 100 to 1000 | 100 to 1000 | 5 to 20 | 1000 to 5000 | Cc1cc(-c2cc(N3C[C@@H](C)[C@@](C#N)(C4CC4)C3=O)c3ccnn3c2)n[nH]1 [Example 318, (3R,4S)-3-cyclopropyl-4-methyl-1-(6-(5-methyl-1H-pyrazol-3-yl)pyrazolo[1,5-a]pyridin-4-yl)-2-oxopyrrolidine-3-carbonitrile] |
|  | 50 to 100 |  |  |  |  |  | < 100 | 100 to 1000 | < 5 | 100 to 1000 | C[C@@H]1CN(c2ccnn3cc(-c4cnn(C5(CO)CC5)c4)cc23)C(=O)[C@]1(C#N)C1CC1 [Example 322, (3R,4S)-3-cyclopropyl-1-(6-(1-(1-(hydroxymethyl)cyclopropyl)-1H-pyrazol-4-yl)pyrrolo[1,2-b]pyridazin-4-yl)-4-methyl-2-oxopyrrolidine-3-carbonitrile] |
|  | 20 to 50 |  |  |  |  |  | < 100 | < 100 | < 5 | < 100 | C[C@@H]1CN(c2ccnn3cc(-c4cnn(CC5(C)COC5)c4)cc23)C(=O)[C@]1(C#N)C1CC1 [Example 325, (3R,4S)-3-cyclopropyl-4-methyl-1-(6-(1-((3-methyloxetan-3-yl)methyl)-1H-pyrazol-4-yl)pyrrolo[1,2-b]pyridazin-4-yl)-2-oxopyrrolidine-3-carbonitrile] |
|  | > 100 |  |  |  |  |  | 100 to 1000 | 100 to 1000 | 20 to 50 | 100 to 1000 | COCc1cnn(-c2cc3c(N4C[C@@H](C)[C@@](C#N)(C5CC5)C4=O)ccnn3c2)c1 [Example 337, (3R,4S)-3-cyclopropyl-1-(6-(4-(methoxymethyl)-1H-pyrazol-1-yl)pyrrolo[1,2-b]pyridazin-4-yl)-4-methyl-2-oxopyrrolidine-3-carbonitrile] |
|  | > 100 |  |  |  |  |  | 100 to 1000 | 1000 to 5000 | 20 to 50 | 100 to 1000 | C[C@@H]1CN(c2ccnn3cc(-n4cc(C(F)F)cn4)cc23)C(=O)[C@]1(C#N)C1CC1 [Example 338, (3R,4S)-3-cyclopropyl-1-(6-(4-(difluoromethyl)-1H-pyrazol-1-yl)pyrrolo[1,2-b]pyridazin-4-yl)-4-methyl-2-oxopyrrolidine-3-carbonitrile] |
|  | > 100 |  |  |  |  |  | 100 to 1000 | 100 to 1000 | 20 to 50 | 100 to 1000 | C[C@@H]1CN(c2ccnn3cc(-n4cc(CC#N)cn4)cc23)C(=O)[C@]1(C#N)C1CC1 [Example 339, (3R,4S)-1-(6-(4-(cyanomethyl)-1H-pyrazol-1-yl)pyrrolo[1,2-b]pyridazin-4-yl)-3-cyclopropyl-4-methyl-2-oxopyrrolidine-3-carbonitrile] |
|  | 20 to 50 |  |  |  |  |  | < 100 | < 100 | < 5 | < 100 | C[C@@H]1CN(c2nc(-c3cnn(C4COC4)c3)cc3ncsc23)C(=O)[C@]1(C#N)C1CC1 [Example 352, (3R,4S)-3-cyclopropyl-4-methyl-1-(6-(1-(oxetan-3-yl)-1H-pyrazol-4-yl)thiazolo[5,4-c]pyridin-4-yl)-2-oxopyrrolidine-3-carbonitrile] |
